{"source": "patent US9724331B2", "about": "“Use of maleimide derivatives for preventing and treating leukemia” (CENTOGENE AG, priority 2012, dated 2017)", "type_in_all_cases": "cell-based, human", "key": {"[1]": {"tested_on": "cleavage of Caspase 3, 7 and PARP", "assay": "Western blot, induction of apoptosis", "conditions": "all cell lines (SEM shown exemplarily); 48 h after addition", "method": "(§1) (A) Cells were treated with PDA-66 for up to 72 h and stained with Annexin V FITC and Propidium iodide (PI). Rates of early apoptotic (FITC^+, PI^−) and late apoptotic and necrotic (FITC^+, PI^+) cells were measured by flow cytometry. Significant induction of apoptosis could be observed in all cell lines after 48 h of incubation as well as tendential induction of necrosis at both points of time. […] (B) Induction of apoptosis was confirmed by Western blot. Cells were treated with different concentrations of PDA-66 and total cell lysates (25 μg) were analyzed by Western blot to detect cleavage of Caspase 3, 7 and PARP. GAPDH was used as loading control.\nAdditionally, the effect of PDA-66 on apoptosis was determined by and western blot. For protein extraction cells were washed twice in PBS and lysed with RIPA buffer (50 mM Tris HCl pH 7.4; 150 mM NaCl; 0.1% SDS and 1% NP40) including protease and phosphatase inhibitors (Roche Applied Science, Mannheim, Germany). Samples were incubated for 20 min at 4° C. and frozen at −20° C. Cell extracts were thawed and centrifuged at 12000 g for 10 min at 4° C. Total protein concentration of supernatants was determined using Bio-Rad Protein Assay (Bio-Rad, München, Germany).\nEqual amounts of protein samples were separated by SDS-polyacrylamid gel (8% or 15%) electrophoresis and transferred onto a PVDF membrane (Amersham Biosciences, Buckinghamshire, UK). […]"}, "[2]": {"tested_on": "RS4;11 cells", "assay": "Metabolic activity, WST-1 assay", "conditions": "0.5 μM PDA-66, 72 h, mean±SD", "method": "(§2) The human B-ALL cell lines SEM, RS4;11 and the human T-ALL cell lines Jurkat and Molt-4 were purchased from DSMZ (Germany) and cultured according to manufacturer's protocol. The corresponding medium was supplemented with 10% heat-inactivated fetal bovine serum (PAA, Pasching, Austria) and 1% penicillin and streptomycin (Biochrom AG, Berlin, Germany). The Molt-4 cells were cultured with medium supplemented with 20% heat-inactivated fetal bovine serum. All cells were maintained at 37° C. in 5% CO2. Cells (5×10^5/well) were seeded in 24 well plates (Nunc, Langenselbold, Germany) and incubated for up to 72 h with PDA-66. Treated cells were harvested after 4, 24, 48 and 72 h and used for further analyses.\n(§3) Cell counts were determined using the trypan blue staining. Metabolic activity was analyzed by using tetrazolium compound WST-1 (Roche, Mannheim, Germany). In brief, triplicates of cells (5×10^4/well) were seeded in 96 well plates, treated with PDA-66 and incubated with 15 μl WST-1 for up to 4 h. The mitochondrial dehydrogenases reduce WST-1 to soluble formazan and cause a change of color, which correlates with the amount of metabolically active cells. Absorbance at 450 nm and a reference wavelength at 620 nm were determined by an ELISA Reader (Anthos, Krefeld, Germany). The absorbance of culture medium with supplemented WST-1 in the absence of cells was used as background control.\n(§4) The influence of PDA-66 on proliferation in ALL cell lines SEM, RS4;11, Jurkat and Molt-4 was analyzed by incubation with different concentrations of the drug (0.001 μM to 10 μM). Metabolic activity was determined using WST-1 assay. […] Results are summarized in FIG. 2, whereby the individual nine bars for each set of experiments represent, from left to right, DMSO, 0.001 μM, 0.01 μM, 0.1 μM, 0.25 μM, 0.5 μM, 1.0 μM, 5 μM and 10 μM. After 48 h of incubation an inhibition of proliferation could be observed, but was more distinct after 72 h."}, "[3]": {"tested_on": "SEM cells", "assay": "Metabolic activity, WST-1 assay", "method": "as §2, §3, §4"}, "[4]": {"tested_on": "Jurkat cells", "assay": "Metabolic activity, WST-1 assay", "method": "as §2, §3, §4"}, "[5]": {"tested_on": "RS4;11 cells", "assay": "Apoptosis and necrosis, Annexin V FITC / PI flow cytometry", "method": "(§5) Apoptosis and necrosis were analyzed by staining the cells with Annexin V FITC (BD Biosciences, Heidelberg, Germany) and propidium iodide (PI) (Sigma Aldrich, St. Louis, USA). Results were assessed by flow cytometry.\nas §1\n(§6) More specifically, 5×10^5 cells were harvested and washed twice (180 g, 10 min, 4° C.) with PBS. After resuspending the cells in 100 μl of binding buffer (1×) 4 μl of Annexin V FITC were added and incubated for 15 min at room temperature. Following addition of 400 μl binding buffer for a final volume of 500 μl the cells were stained with PI (0.6 μg/ml) immediately before measurement. As controls unstained and single stained cells were included in each experiment. Measurements were performed using FACSCalibur (Becton and Dickinson, Heidelberg, Germany) and data analyses were carried out with CellQuest software (Becton and Dickinson, Heidelberg, Germany)."}, "[6]": {"tested_on": "Molt-4 cells", "assay": "Apoptosis and necrosis, Annexin V FITC / PI flow cytometry", "method": "as §5, §1, §6"}, "[7]": {"tested_on": "SEM cells", "assay": "Apoptosis and necrosis, Annexin V FITC / PI flow cytometry", "method": "as §5, §1, §6"}, "[8]": {"tested_on": "Jurkat cells", "assay": "Apoptosis and necrosis, Annexin V FITC / PI flow cytometry", "method": "as §5, §1, §6"}}}
{"smiles": "CC(=O)c1ccc(C2=C(c3c(C)[nH]c4ccccc34)C(=O)N(C)C2=O)cc1", "note": "[PDA-66, 3-(4-Acetylphenyl)-1-methyl-4-(2-methyl-1H-indol-3-yl)-1H-pyrrole-2,5-dione]", "values": [{"measurement": "cleavage of caspases 3 and 7 and PARP", "setting": "[1]", "result": "induced cleavage"}, {"measurement": "metabolic activity compared to control cells treated with DMSO", "setting": "[2]", "result": "33.3±4.4", "unit": "%"}, {"measurement": "IC50", "setting": "[3]; Homo sapiens, SEM cells, 72 h of incubation", "result": 410, "unit": "nM"}, {"measurement": "metabolic activity compared to control cells treated with DMSO", "setting": "[3]; SEM, 0.5 μM PDA-66, 72 h, mean±SD", "result": "35.7±8.3", "unit": "%"}, {"measurement": "IC50", "setting": "[4]; Homo sapiens, Jurkat cells, 72 h of incubation", "result": 1280, "unit": "nM"}, {"measurement": "metabolic activity compared to control cells treated with DMSO", "setting": "[4]; Jurkat, 0.5 μM PDA-66, 72 h, mean±SD", "result": "66.7±8", "unit": "%"}, {"measurement": "necrosis", "setting": "[5]; 1 μM PDA-66, 48 h", "result": "tendential increase"}, {"measurement": "apoptosis (early apoptotic cells, FITC+, PI−)", "setting": "[5]; 1 μM PDA-66, 48 h, mean±SD", "result": "7.4±1.1", "unit": "%"}, {"measurement": "apoptosis (early apoptotic cells, FITC+, PI−)", "setting": "[5]; 1 μM PDA-66, 72 h, mean±SD", "result": "6.4±3.6", "unit": "%"}, {"measurement": "necrosis rate (late apoptotic and necrotic cells, FITC+, PI+)", "setting": "[5]; 1 μM PDA-66, 72 h, mean±SD", "result": "26.5±10.2", "unit": "%"}, {"measurement": "necrosis", "setting": "[6]; 1 μM PDA-66, 48 h", "result": "tendential increase"}, {"measurement": "apoptosis (early apoptotic cells, FITC+, PI−)", "setting": "[6]; 1 μM PDA-66, 48 h, mean±SD", "result": "16.3±5.1", "unit": "%"}, {"measurement": "apoptosis (early apoptotic cells, FITC+, PI−)", "setting": "[6]; 1 μM PDA-66, 72 h, mean±SD", "result": "20.1±6.6", "unit": "%"}, {"measurement": "necrosis rate (late apoptotic and necrotic cells, FITC+, PI+)", "setting": "[6]; 1 μM PDA-66, 72 h, mean±SD", "result": "46.7±15.6", "unit": "%"}, {"measurement": "necrosis", "setting": "[7]; 1 μM PDA-66, 48 h", "result": "tendential increase"}, {"measurement": "apoptosis (early apoptotic cells, FITC+, PI−)", "setting": "[7]; 1 μM PDA-66, 48 h, mean±SD", "result": "10.5±1.3", "unit": "%"}, {"measurement": "apoptosis (early apoptotic cells, FITC+, PI−)", "setting": "[7]; 1 μM PDA-66, 72 h, mean±SD", "result": "5.6±1.6", "unit": "%"}, {"measurement": "necrosis rate (late apoptotic and necrotic cells, FITC+, PI+)", "setting": "[7]; 1 μM PDA-66, 72 h, mean±SD", "result": "27.8±5.81", "unit": "%"}, {"measurement": "necrosis", "setting": "[8]; 1 μM PDA-66, 48 h", "result": "tendential increase"}, {"measurement": "apoptosis (early apoptotic cells, FITC+, PI−)", "setting": "[8]; 1 μM PDA-66, 48 h, mean±SD", "result": "8.3±1.9", "unit": "%"}, {"measurement": "apoptosis (early apoptotic cells, FITC+, PI−)", "setting": "[8]; 1 μM PDA-66, 72 h, mean±SD", "result": "6.1±0.7", "unit": "%"}, {"measurement": "necrosis rate (late apoptotic and necrotic cells, FITC+, PI+)", "setting": "[8]; 1 μM PDA-66, 72 h, mean±SD", "result": "28.0±13.4", "unit": "%"}]}
